From patent US6063773A, “Cellulose sulfate for use as antimicrobial and contraceptive agent” (Polydex Pharmaceuticals Ltd., priority 1995, dated 2000)

Tests used:
N. gonorrhea = experiment: Infectivity of N. gonorrhea; type: cell-based; conditions: FIG. 7
Source text: FIG. 7 is a table illustrating the effects of cellulose sulfate on the infectivity of N. gonorrhea.
(§1) Moreover, cellulose sulfate of the present invention at 1.8% has no effect on normal vaginal flora, namely Lactobacilli (FIG. 8).

human spermatozoa = experiment: Acrosome reaction of human spermatozoa; type: cell-based; conditions: FIG. 4
Source text: FIG. 4 is a table illustrating the influence of cellulose sulfate on acrosome reaction of human spermatozoa.
Acrosome refers to the anterior organelle of the sperm head necessary for fertilization of an egg by the sperm.

rabbit spermatozoa = experiment: Fertilization outcome after artificial insemination of spermatozoa pretreated with polysaccharides; type: in vivo; conditions: for anti-fertility effect of treating spermatozoa: spermatozoa treated with comparator polysaccharide
Source text: FIG. 1 is a table showing fertilization outcome after artificial insemination of spermatozoa pretreated with different polysaccharides.
FIG. 1 illustrates the antifertility effect of cellulose sulfate on rabbit spermatozoa at a concentration as low as 0.1%.

[1] = rabbit, in vivo
spermatozoa = experiment: Cervical mucus penetration experiments; type: cell-based; conditions: 1% concentration, in vitro, FIG. 3
Source text: FIG. 3 is a table providing the results of cervical mucus penetration experiments.

HIV [2] = experiment: HIV inhibition assay; type: cell-based; conditions: concentration of 0.005%, in vitro, FIG. 5
Source text: FIG. 5 is a table illustrating the results of HIV inhibition assay experiments.

conception in rabbits = experiment: Contraceptive efficacy when applied vaginally; type: in vivo, rabbit
Source text: FIG. 2 is a table showing the contraceptive efficacy of cellulose sulfate when applied vaginally.

[3] = system: chlamydial infection of HeLa cells; experiment: Anti-chlamydial effect, chlamydial infection of HeLa cells; type: cell-based; conditions: 100 μg/ml, FIG. 9
Method: FIG. 9 is a table illustrating anti-chlamydial effects of cellulose sulfate .
FIG. 9 illustrates anti-chlamydial effect of cellulose sulfate. At a concentration of 100 μg/ml, cellulose sulfate inhibits chlamydial infection of HeLa cells by 91%.

Lactobacilli = experiment: Growth of Lactobacilli; type: cell-based; conditions: 1.8%, FIG. 8
Source text: FIG. 8 is a table illustrating the effects of cellulose sulfate on the growth of Lactobacilli.
as §1

HSV = HSV infectivity experiments; type: cell-based; conditions: in vitro, FIG. 6
Source text: FIG. 6 is a table providing the results of HSV infectivity experiments.

[4] = system: Herpes Simplex Virus (HSV); conditions: known from the art; cited from earlier work
HIV [5] = conditions: known from the art; cited from earlier work
[6] = if used frequently; cited from earlier work

In the case of cellulose sulfate, the “concentration that can completely kill N. gonorrhea” value (N. gonorrhea) is reported as “at least 0.01%”, the “acrosomal loss in human spermatozoa” value (human spermatozoa) is reported as “induces acrosomal loss in human spermatozoa, and to a significantly greater extent than heparin or dextran sulfate” and the “conception in rabbits inseminated with treated spermatozoa” value (rabbit spermatozoa; pre-treatment of spermatozoa with 1% cellulose sulfate) is reported as “effectively prevented conception”. For the same substance, the “concentration showing antifertility effect on rabbit spermatozoa” value (rabbit spermatozoa; pre-treatment of spermatozoa, artificial insemination, FIG. 1) was no more than 0.1%, the vaginal irritation [1] was “minimal vaginal irritation” and the “vaginal irritation in combination with nonoxynol-9” value [1] was “does not cause an increase in the vaginal irritation of nonoxynol-9”. For the same substance, the “penetration by spermatozoa into the cervical mucus” value (spermatozoa) was “impedes penetration by spermatozoa into the cervical mucus membrane in vitro, and to a significantly greater extent than dextran sulfate”, the “binding of HIV to human cells” value (HIV [2]) was “inhibits the binding of HIV to human cells” and the “percentage of fertilized oocytes compared with nonoxynol-9” value (conception in rabbits; 5% cellulose sulfate vs 2.2% commercial preparation of nonoxynol-9, intravaginal, rabbits) was “as effective or more effective than nonoxynol-9”. For the same substance, the risk of conception (conception in rabbits; 5% formulation applied intra-vaginally in rabbits, FIG. 2) was “reduces the risk of conception”, the “inhibition of chlamydial infection of HeLa cells” value [3] was 91% and the “effect on normal vaginal flora, Lactobacilli” value (Lactobacilli) was “no effect”. The “concentration inhibiting infection of human cells by HSV” value (HSV) was no more than 0.00001%.

For dextran sulfate, the HSV inhibition [4] is listed as “inhibit Herpes Simplex Virus (HSV)”, the “anti-fertility effect of treating spermatozoa” value (rabbit spermatozoa) is listed as “little or no anti-fertility effect” and the “HIV infectivity in vitro” value (HIV [5]) is listed as “inhibit HIV infectivity in vitro”.

For heparin [reference compound], the “anti-fertility effect of treating spermatozoa” value (rabbit spermatozoa) was “little or no anti-fertility effect”.

In the case of heparin sulfate, the HSV inhibition [4] is listed as “inhibit HSV infectivity” and the “HIV infectivity in vitro” value (HIV [5]) is listed as “inhibit HIV infectivity in vitro”.

In the case of nonoxynol-9, the “effect on natural vaginal flora” value [6] is given as “inactivates the natural protective vaginal flora” and the “irritation of vaginal mucus membrane” value [6] is given as “causes irritation to the mucus membrane of the vagina”.
